Measured values taken from PubChem BioAssay (NCI).
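Grown in 96-well plates, cells were treated for 48 hours with each compound at five concentrations. Insufficient inhibition: endpoint recorded as highest concentration tested. GI50 marks 50% less growth. Definition used: TGI = concentration required for complete inhibition of growth.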

What was measured:
Test in all cases: DTP human tumour cell line panel, 48 h
HOP-92 NSCLC = system: HOP-92 NSCLC
A549 NSCLC = system: A549 NSCLC
CAKI-1 renal = system: CAKI-1 renal
SW-620 colon = system: SW-620 colon
NCI-H460 lung = system: NCI-H460 lung
SF-295 CNS = system: SF-295 CNS
UACC-257 melanoma = system: UACC-257 melanoma
HS 578T breast = system: HS 578T breast
MDA-MB-231 breast = system: MDA-MB-231 breast
BT-549 breast = system: BT-549 breast

SMILES | TGI (HOP-92 NSCLC) [µM] | TGI (A549 NSCLC) [µM] | TGI (CAKI-1 renal) [µM] | TGI (SW-620 colon) [µM] | TGI (NCI-H460 lung) [µM] | TGI (SF-295 CNS) [µM] | TGI (UACC-257 melanoma) [µM] | GI50 (HOP-92 NSCLC) [µM] | GI50 (A549 NSCLC) [µM] | GI50 (SF-295 CNS) [µM] | GI50 (CAKI-1 renal) [µM] | GI50 (UACC-257 melanoma) [µM] | GI50 (SW-620 colon) [µM] | GI50 (HS 578T breast) [µM] | TGI (HS 578T breast) [µM] | GI50 (MDA-MB-231 breast) [µM] | TGI (MDA-MB-231 breast) [µM] | GI50 (NCI-H460 lung) [µM] | GI50 (BT-549 breast) [µM] | TGI (BT-549 breast) [µM]
CC(=O)N/C(=C\c1ccccc1/C=C(\NC(C)=O)c1nc2cc(C)c(C)cc2[nH]1)c1nc2cc(C)c(C)cc2[nH]1 | 62.1 | > 100 | 78.1 | 64.7 | 97.9 |  |  |  |  |  |  |  |  |  |  |  |  |  |  | 
COCOCCC#CCO | > 100 | > 100 |  | > 100 | > 100 | > 100 | > 100 |  |  |  |  |  |  |  |  |  |  |  |  | 
CN(C)CCNC(=O)Cc1ccccc1Nc1c(Cl)cccc1Cl |  | 36 |  | 34.5 | 24.7 | 30.1 | 29.1 |  |  |  |  |  |  |  |  |  |  |  |  | 
C[N+](C)(C)CC(=O)N/N=C(/Cc1cc(=O)oc2cc(O)ccc12)C(=O)Nc1ccc(Cl)cc1 |  | > 100 | > 100 | > 100 | > 100 | > 100 | > 100 |  |  |  |  |  |  |  |  |  |  |  |  | 
CC1=C(C(=O)Nc2ccccc2)C(c2ccc(Cl)c(Cl)c2)C(C(=O)Nc2ccccc2)=C(C)N1 |  | 25.3 |  | 34.7 | 31.2 | 25.5 | 26.5 |  |  |  |  |  |  |  |  |  |  |  |  | 
CCC(C)(C)n1c(C)nc2c1C(=O)c1ccccc1C2=O |  | > 100 |  | > 100 | 29 | > 100 | 84.4 |  |  |  |  |  |  |  |  |  |  |  |  | 
CCCCCCCC(=O)OCC1OC(n2cc(F)c(=O)[nH]c2=O)C(N)C(OC(=O)CCCCCCC)C1O (centres undefined) | 34.3 | 32.3 | 41.5 | 33.6 | 34.8 | 31.3 | 33.4 |  |  |  |  |  |  |  |  |  |  |  |  | 
C=C(C)C(C1C=C(CCC(C=O)=C(C)C)C(=O)O1)C1(OC)C=C(C)C(=O)O1 (centres undefined) | > 100 | > 100 | > 100 | > 100 | 28.8 | > 100 | > 100 | > 100 | > 100 | > 100 | > 100 | > 100 | 39.6 | > 100 | > 100 | > 100 | > 100 | 12.5 |  | 
CN1Nc2ccccc2CC1=O | > 100 | > 100 | > 100 | > 100 | > 100 | > 100 | > 100 |  |  |  |  |  |  |  |  |  |  |  |  | 
CCCN(CCC)c1c([N+](=O)[O-])cc(C(=O)N(CC)CC)cc1[N+](=O)[O-] |  | 38.1 | > 100 | 84.1 | 60.2 | > 100 | 43.3 |  |  |  |  |  |  |  |  |  |  |  |  | 
Oc1oc(C(=C2N=c3ccccc3=N2)c2ccc(Cl)cc2)c(O)c1-c1ccc(Cl)cc1 | 4.47 | > 100 | 7.14 | 68.3 | > 100 | 16.8 | 6.45 |  |  |  |  |  |  |  |  |  |  |  |  | 
CCOC(=O)Cc1csc(Nc2ccccc2[N+](=O)[O-])n1 | > 100 | > 100 | > 100 | > 93.1 | > 100 | > 100 | > 100 |  |  |  |  |  |  |  |  |  |  |  |  | 
CNCCCNc1ccnc2cc(Cl)ccc12 | 39.1 |  | 48.6 | 58.8 | 37.8 | > 100 |  | 9.51 |  | 27.1 | 17.3 |  | 13.2 | 20.8 | 78 | 12.7 | 56.5 | 17.9 | 28.3 | > 100
C/C(=N\NC(N)=O)c1sc(-c2nc(C)c(/C(C)=N/NC(N)=O)s2)nc1C | > 100 | > 100 | > 100 |  | > 100 | > 100 | > 100 |  |  |  |  |  |  |  |  |  |  |  |  | 
O=C1C/C(Br)=C\c2ccccc2-c2ccccc21 | 5.27 | 21.8 | 5.86 | 2.98 | 10.4 | 16.9 | 14.5 |  |  |  |  |  |  |  |  |  |  |  |  | 
O=C1c2cccc3cccc(c23)C(=O)N1CCN(CCO)CCO | 83 | 70.7 |  | 46 | 69.9 | > 100 | 54 |  |  |  |  |  |  |  |  |  |  |  |  | 
FC(F)(F)c1ccc2nc(NCc3ccccc3)c(-c3ccccc3)nc2c1 | 17.9 | > 100 |  | > 100 | > 100 | > 100 | > 100 |  |  |  |  |  |  |  |  |  |  |  |  | 
C=C(C)[C@@H]1CC[C@]2(CN)CC[C@]3(C)[C@H](CC[C@@H]4[C@@]5(C)CCCNC(C)(C)[C@@H]5CC[C@]43C)[C@@H]12 | 3.28 | 3.71 | 3.02 | 3.05 | 2.67 | 3.29 | 4.35 | 1.69 | 1.95 | 1.78 | 1.66 | 2.09 | 1.53 | 1.8 | 4 | 1.79 | 3.52 | 1.24 |  | 
O/N=C1\CCCCC1C(NO)c1ccccc1 (centres undefined) | > 100 | > 100 |  | > 100 | > 100 | > 100 | > 100 |  |  |  |  |  |  |  |  |  |  |  |  | 
O=C1C=C(c2c(O)ccc3ccccc23)c2cc(O)ccc2C1=O | 31.9 | 36.7 | 40.1 | 34.3 | 44.7 | 34.9 | 33.1 |  |  |  |  |  |  |  |  |  |  |  |  | 
COc1cc2c(cc1OCCCN1CCN(CCCOc3cc4c(cc3OC)C(=O)N3CC(F)(F)C[C@H]3C=N4)CC1)N=C[C@@H]1CC(F)(F)CN1C2=O | 76.3 | 43 | 13.5 | 12.5 | 15.6 |  | 31.6 | 6.14 | 7.32 |  | 3.31 | 15.3 | 2.61 | 2.32 | 9.55 | 4.29 | 17.6 | 2.6 | 1.95 | 5.36
COc1ccc(Cl)cc1NC(=O)c1ccc(NC2=C(Cl)C(=O)N(Cc3ccccc3)C2=O)cc1 |  | > 100 | > 100 | > 100 | > 100 | > 100 | > 100 |  | > 100 | 36.2 | > 100 | 94.1 | 93 | 37.1 | > 100 | 26.2 | > 100 | 9.41 | 28.7 | > 100
CCCCCCCCCCCC[N+]12CC[N+](CCN)(CC1)CC2 | > 100 | > 100 | > 100 | > 100 | > 100 | > 100 | > 100 |  |  |  |  |  |  |  |  |  |  |  |  | 
